The results in this text go back to patent US11312690B2, “Compounds, compositions, methods for treating diseases, and methods for preparing compounds” (UNIVERSITY OF LOUISVILLE RESEARCH FOUNDATION, INC., priority 2015, dated 2022).

One experiment has as its system MiaPaCa-2. Nature of the experiment: Soft agar colony formation. It counts as cell-based, human. The following applies: 10 μM. Further details: Colonies in agar: unit not given here. Here is the method: FIG. 1. Effects of some compounds of Formula (I) on RalGEF inhibitor on soft agar growth and normal growth in 2D of pancreatic carcinoma cell lines. In FIGS. 1A and 1B, Panc-1 (ATCC® CRL-1469™) and MiaPaCa-2 (ATCC® CRL-1420™) mutant Ras containing pancreatic tumor cell lines were plated in soft agar in the presence of 10 μM or 0.9 μM of compound I-1 and scored for the formation of colonies. In FIGS. 1C and 1D, compound I-1 was then tested for the ability to inhibit cell growth on the same cell lines under normal 2D growth conditions on plastic. “0” is the carrier. Cells were seeded at the same density and scored after two weeks in culture.
Human pancreatic tumor cell lines MiaPaca-2 and Panc-1 contain activated K-Ras and were used in the initial screen to identify compound I-1. Soft agar colony formation remains an established in vitro assay to predict tumorigenicity and was used to predict tumorigenicity for compound I-1.
Several other compounds were tested against the Mia Paca-2 cell line using the soft agar colony formation in vitro assay in two experiments. For each table, DMSO was used as a control and, as such, within each table, the DMSO colonies are the measure against which each measurement in the corresponding table is compared.

Experiment [1] deals with T1, interaction of K-Ras with RGL2 (Homo sapiens, UniProt O15211).
T1 construct: expressed in transfected cells; host or cells: HEK-293
T1 sequence (O15211 1-777): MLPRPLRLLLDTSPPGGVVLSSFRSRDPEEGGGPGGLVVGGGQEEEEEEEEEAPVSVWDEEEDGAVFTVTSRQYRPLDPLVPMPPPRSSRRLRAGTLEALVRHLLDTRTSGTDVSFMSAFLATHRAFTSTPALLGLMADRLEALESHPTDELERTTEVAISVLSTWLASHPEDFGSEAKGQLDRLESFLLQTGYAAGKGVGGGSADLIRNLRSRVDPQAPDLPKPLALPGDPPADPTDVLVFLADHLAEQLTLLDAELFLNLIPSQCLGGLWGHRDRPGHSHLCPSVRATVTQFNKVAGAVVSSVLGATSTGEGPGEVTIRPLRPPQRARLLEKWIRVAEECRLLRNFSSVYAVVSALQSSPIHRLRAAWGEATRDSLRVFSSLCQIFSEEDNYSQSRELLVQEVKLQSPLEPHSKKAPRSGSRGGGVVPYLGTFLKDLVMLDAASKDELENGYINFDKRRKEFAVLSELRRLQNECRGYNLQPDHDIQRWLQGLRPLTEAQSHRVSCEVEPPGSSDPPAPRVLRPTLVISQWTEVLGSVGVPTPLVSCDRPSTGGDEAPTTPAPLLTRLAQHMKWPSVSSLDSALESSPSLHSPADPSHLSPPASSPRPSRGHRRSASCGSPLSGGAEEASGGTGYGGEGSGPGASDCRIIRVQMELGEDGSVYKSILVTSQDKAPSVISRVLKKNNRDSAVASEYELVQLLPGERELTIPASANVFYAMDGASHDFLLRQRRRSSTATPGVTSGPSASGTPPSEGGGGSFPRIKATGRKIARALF
The experiment is described as follows: Ras/RalGEF binding, immunoprecipitation and immunoblot from co-transfected HEK-293 cells. The following applies: 10 μM, HA K-Ras 12v and GFP-RGL2, IP/IB, FIG. 3B. On the technique in general: In western blotting, separated proteins are transferred to a membrane and probed.

[2] abbreviates: Table 2 experiment, DMSO control 182 ± 7 colonies.
Setting [3] is: Table 3 experiment, DMSO control 1686 ± 114 colonies.

`COc1cccc(CN(C)Cc2nc(NCc3cccc(Cl)c3)c3c(C)c(C)sc3n2)c1` [Compound I-27] returned a Colonies in agar in the experiment on MiaPaCa-2 (setting [2]) of 51 ± 9.

`COc1cccc(CNc2nc(CN(C)Cc3ccccc3)nc3sc(C)c(C)c23)c1` [Compound I-54] gave a Colonies in agar in the experiment with MiaPaCa-2 (setting [3]) of 410 ± 31.

For the compound `CCc1cc2c(NCc3cccc(OC)c3)nc(CN(C)Cc3cccc(OC)c3)nc2s1` [Compound I-31], in the experiment with MiaPaCa-2 (setting [2]), the Colonies in agar is 14 ± 1.

With `COc1cccc(CNc2nc(CN(C)Cc3cccc(OC)c3)nc3ccccc23)c1` [Compound I-2, N-(3-Methoxybenzyl)-2-(((3-methoxybenzyl)(methyl)amino)methyl)quinazolin-4-amine], the “inhibition of RGL2 (Ras/RGL2 interaction)” value in experiment [1] is recorded as “found to inhibit RGL2”.

For the compound `COc1cccc(CNc2nc(CN(C)Cc3cccc(OC)c3)nc3scc(C)c23)c1` [Compound I-30], in the experiment on MiaPaCa-2 (setting [2]), the Colonies in agar was 14 ± 2.

`COc1cccc(CN(C)Cc2nc(NC(C)c3ccccc3)c3c(C)c(C)sc3n2)c1` (stereo not shown) [Compound I-26]: in the experiment with MiaPaCa-2 (setting [2]), the Colonies in agar is 0 ± 0.

In the experiment on MiaPaCa-2 (setting [2]), `COc1cccc(CNc2nc(CN(C)Cc3cccc(OC)c3)nc3sccc23)c1` [Compound I-32] showed a Colonies in agar of 36 ± 1.

As for `COc1cccc(CNc2nc(CN(C)Cc3cccc(OC)c3)nc3c2c(C)c(C)[s+]3[O-])c1` (stereo not shown) [Compound I-33], the Colonies in agar in the experiment with MiaPaCa-2 (setting [2]) amounted to 186 ± 4.

Compound `COc1cccc(CN(C)Cc2nc(NCc3ccccc3OC)c3c(C)c(C)sc3n2)c1` [Compound I-43] returned a Colonies in agar in the experiment on MiaPaCa-2 (setting [3]) of 272 ± 40.

In the experiment with MiaPaCa-2 (setting [3]), `COc1cccc(CN(C)Cc2nc(NCc3ccccc3)c3c(C)c(C)sc3n2)c1` [Compound I-46] came in with a Colonies in agar of 320 ± 22.

Regarding `COc1cccc(CN(C)Cc2nc(NCc3cccc(F)c3)c3c(C)c(C)sc3n2)c1` [Compound I-28], the Colonies in agar in the experiment with MiaPaCa-2 (setting [2]) was found to be 54 ± 5.

In the experiment on MiaPaCa-2 (setting [2]), `COc1cccc(CNc2nc(CN(C)Cc3cccc(C)c3)nc3sc(C)c(C)c23)c1` [Compound I-29] showed a Colonies in agar of 0 ± 0.

In the experiment on MiaPaCa-2 (setting [3]), `COc1cccc(CNc2nc(CN(C)Cc3cccc(OC)c3)nc3sc4c(c23)CCC4)c1` [Compound I-45] gave a Colonies in agar of 361 ± 49.
